Results as given in patent US20160235735A1 (Teva Pharmaceutical Industries, Ltd., priority 2012, published 2016).
Where “and” joins values, the source holds several entries; their conditions need not be identical. Identical values can stand only once.

Columns and labels:
[1] = tested on: MOG-induced EAE Mice; test: MOG-induced EAE in mice: laquinimod alone or in combination with fampridine; format: in vivo, C57BL/6 mice; details: for Incidence / Mortality: 30 days; for % inhibition 3: according to GMS; for % inhibition 2: according to MMS; for % inhibition 1: according to incidence; for GMS value: group mean score; for MMS value: mean maximal score
[2] = cited from earlier work
[3] = in vivo; cited from earlier work
[4] = in vivo; cited from earlier work; remark: listed apart in the source
[5] = 4AP 2.5 mg/kg oral QD, compared to vehicle
[6] = 4AP 5 mg/kg oral QD, compared to vehicle
[7] = laquinimod 10 mg/kg oral QD, compared to vehicle
[8] = laquinimod 25 mg/kg oral QD, compared to LAQ (10 mg/kg)
[9] = laquinimod 25 mg/kg oral QD, compared to vehicle

Nc1ccncc1 [4AP, pyridin-4-amine]
Incidence ([1]; 4AP 2.5 mg/kg oral QD): 15/15 | Mortality ([1]; 4AP 2.5 mg/kg oral QD): 0/15 | % inhibition 3 [1, 5]: 24.1% | % inhibition 3 ([1]; 4AP 2.5 mg/kg oral QD, compared to vehicle, listed as fampridine): 24.1% | % inhibition 2 [1, 5]: 10.2% | % inhibition 1 [1, 5]: 0% | GMS value ([1]; 4AP 2.5 mg/kg oral QD): 2.2 ± 0.5 | MMS value ([1]; 4AP 2.5 mg/kg oral QD): 3.5 ± 0.6 | Incidence ([1]; 4AP 5 mg/kg oral QD): 15/15 | Mortality ([1]; 4AP 5 mg/kg oral QD): 0/15 | % inhibition 3 [1, 6]: 34.5% | % inhibition 3 ([1]; 4AP 5 mg/kg oral QD, compared to vehicle, listed as fampridine): 34.5% | % inhibition 2 [1, 6]: 12.8% | % inhibition 1 [1, 6]: 0% | GMS value ([1]; 4AP 5 mg/kg oral QD): 1.9 ± 0.6 | MMS value ([1]; 4AP 5 mg/kg oral QD): 3.4 ± 0.6 | solubility in aqueous solution ([2]; chloride salt): readily soluble | lipid solubility ([2]; unionized form): lipid-soluble | safety issues [3]: safety issues related to seizure induction

CCN(C(=O)c1c(O)c2c(Cl)cccc2n(C)c1=O)c1ccccc1 [LAQ, Laquinimod]
Incidence ([1]; laquinimod 10 mg/kg oral QD): 10/15 and 15/15 | Mortality ([1]; laquinimod 10 mg/kg oral QD): 0/15 | % inhibition 3 [1, 7]: 58.6% | % inhibition 3 ([1]; laquinimod 10 mg/kg oral QD, compared to vehicle, listed as laquinimod): 58.6% | % inhibition 2 [1, 7]: 38.5% | % inhibition 1 [1, 7]: 33.3% | GMS value ([1]; laquinimod 10 mg/kg oral QD): 1.2 ± 1.0 | MMS value ([1]; laquinimod 10 mg/kg oral QD): 2.4 ± 1.9 | Incidence ([1]; laquinimod 25 mg/kg oral QD): 4/15 | Mortality ([1]; laquinimod 25 mg/kg oral QD): 0/15 | % inhibition 3 [1, 8]: 66.7% | % inhibition 3 [1, 9]: 86.2% | % inhibition 3 ([1]; laquinimod 25 mg/kg oral QD, compared to vehicle, listed as laquinimod): 86.2% | % inhibition 2 [1, 8]: 70.8% | % inhibition 2 [1, 9]: 82.1% | % inhibition 1 [1, 8]: 60.0% | % inhibition 1 [1, 9]: 73.3% | GMS value ([1]; laquinimod 25 mg/kg oral QD): 0.4 ± 0.7 | MMS value ([1]; laquinimod 25 mg/kg oral QD): 0.7 ± 1.3 | oral bioavailability [4]: high oral bioavailability
